In patent US12404241B2 (Celgene Corporation, priority 2018, dated 2025):
Counter-ions that a name gives are not always drawn.

Target: T1, AR (Homo sapiens, UniProt P10275)
T1 construct: endogenous in cells; host or cells: VCaP cells
T1 sequence (P10275 1-920): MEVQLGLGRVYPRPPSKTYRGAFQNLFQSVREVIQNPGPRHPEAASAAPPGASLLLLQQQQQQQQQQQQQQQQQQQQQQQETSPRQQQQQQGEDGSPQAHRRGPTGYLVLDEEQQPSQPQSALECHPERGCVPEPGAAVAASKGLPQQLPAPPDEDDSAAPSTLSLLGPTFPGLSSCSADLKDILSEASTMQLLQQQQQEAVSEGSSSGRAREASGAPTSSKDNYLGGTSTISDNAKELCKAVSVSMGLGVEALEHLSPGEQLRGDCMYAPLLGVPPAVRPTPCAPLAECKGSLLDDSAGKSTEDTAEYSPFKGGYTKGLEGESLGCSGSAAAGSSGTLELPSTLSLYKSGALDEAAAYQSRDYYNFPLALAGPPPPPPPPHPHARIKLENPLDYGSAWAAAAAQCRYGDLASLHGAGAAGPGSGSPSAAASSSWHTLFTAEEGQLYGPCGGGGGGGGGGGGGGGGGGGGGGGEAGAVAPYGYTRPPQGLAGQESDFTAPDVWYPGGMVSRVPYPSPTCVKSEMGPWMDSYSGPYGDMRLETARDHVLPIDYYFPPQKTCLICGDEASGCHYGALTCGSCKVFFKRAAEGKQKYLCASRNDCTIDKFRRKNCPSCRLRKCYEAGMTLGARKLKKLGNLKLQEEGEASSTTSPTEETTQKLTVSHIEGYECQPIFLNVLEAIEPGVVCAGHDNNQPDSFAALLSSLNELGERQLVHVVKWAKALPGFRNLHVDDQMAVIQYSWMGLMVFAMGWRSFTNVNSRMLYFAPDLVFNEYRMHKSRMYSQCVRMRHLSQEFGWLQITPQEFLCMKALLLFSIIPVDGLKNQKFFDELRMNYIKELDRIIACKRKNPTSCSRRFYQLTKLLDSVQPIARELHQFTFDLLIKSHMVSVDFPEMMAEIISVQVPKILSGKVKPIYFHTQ
Assay: VCAP AR Degradation Assay
Format: cell-based
Conditions: for Y (AR degradation efficiency, % of DMSO control): class symbols *; for DC50: class symbols A-C, read-out: DC50
Protocol: VCAP AR Degradation Assay. Test compounds were pre-dispensed into a Corning CellBind 96-well clear bottom plate (Cat #3300) using an acoustic dispenser to make a 10-point concentration series at 1:3 dilution for each compound. The final top concentration of each compound was 5 μM. DMSO at a final concentration of 0.1% was used as a control. VCaP cells cultured in DMEM with 8% fetal bovine serum (FBS) were seeded at 50K cells per well in a 200 μL volume into the compound plate and incubated at 37° C. in a CO2 incubator for 24 h. The medium was carefully removed from the cells and the plate was placed on ice. One hundred μL of ice-cold 1x cell lysis buffer from Cell Signaling Technologies (Cat #9803) was added to each well of the cells and the plate was incubated at 4° C. on a shaker for 1 h. Fifteen μL of cell lysate was used for AR ELISA detection using a PathScan Total Sandwich AR ELISA kit (Cell Signaling Technology, Cat #12580). AR levels in compound-treated wells were normalized to that of DMSO control and expressed as percent of control (PoC) (y). A Four Parameter Logistic Model (Sigmoidal Dose-Response Model) was used to determine the compound's DC50, and EC50, using the following equation:
[formula] • A=YMin (lowest AR level normalized to DMSO control in response to compound treatment, as determined by curve fit) • B=YMax (maximum AR level as determined by curve fit) • C=EC50 • D=Hill Slope • x=compound concentration • EC50=the concentration of compound when y=(YMax−YMin)/2 • DC50=the concentration of the compound when y=50% of DMSO control (50% AR degradation) • y=AR protein level normalized to DMSO control
The lowest measured AR level normalized to DMSO control in response to compound treatment, termed Y value, was used to characterize the compound-mediated AR degradation efficiency.

SMILES | Y (AR degradation efficiency, % of DMSO control) | DC50
CCc1cc(N2C(=S)N(c3ccc(C#N)c(C(F)(F)F)c3)C(=O)C2(C)C)ccc1OCCN1CCN([C@H](C)C(=O)Nc2cccc(NC3CCC(=O)NC3=O)c2)[C@@H](C)C1 (stereo partly drawn) [Example 274, (2R)-2-((S)-4-(2-(4-(3-(4-cyano-3-(trifluoromethyl)phenyl)-5,5-dimethyl-4-oxo-2-thioxoimidazolidin-1-yl)-2-ethylphenoxy)ethyl)-2-methylpiperazin-1-yl)-N-(3-(2,6-dioxopiperidin-3-ylamino)phenyl)propanamide] | * (0<Y<=25%) | < 100 nM
CC1(C)C(=O)N(c2cnc(C#N)c(C(F)(F)F)c2)C(=S)N1c1ccc(OCCN2CCN(CC(=O)Nc3cc(NC4CCC(=O)NC4=O)ccc3F)CC2)cc1 (stereo not shown) [Example 86, 2-(4-(2-(4-(3-(6-cyano-5-(trifluoromethyl)pyridin-3-yl)-5,5-dimethyl-4-oxo-2-thioxoimidazolidin-1-yl)phenoxy)ethyl)piperazin-1-yl)-N-(5-(2,6-dioxopiperidin-3-ylamino)-2-fluorophenyl)acetamide] | ** (25%<Y<=35%) | < 100 nM
CCc1cc(N2C(=S)N(c3ccc(C#N)c(C(F)(F)F)c3)C(=O)C2(C)C)ccc1OCCN1CCN(CC(=O)Nc2cccc(NC3CCC(=O)NC3=O)c2)C[C@H]1C (stereo partly shown) [Example 44] | * (0<Y<=25%) | < 100 nM
CC1(C)C(=O)N(c2ccc(C#N)c(C(F)(F)F)c2)C(=S)N1c1ccc(OCCN2CCN(CC(=O)Nc3cc(F)cc(NC4CCC(=O)NC4=O)c3)CC2)c(F)c1 (stereo not shown) [Example 19, formate] | * (0<Y<=25%) | < 100 nM
CC(C)c1cc(N2C(=S)N(c3cnc(C#N)c(C(F)(F)F)c3)C(=O)C2(C)C)ccc1OCCN1C[C@@H](C)N(CC(=O)Nc2cc(Cl)cc(NC3CCC(=O)NC3=O)c2)C[C@H]1C (stereo partly drawn) [Example 185, N-(3-chloro-5-(2,6-dioxopiperidin-3-ylamino)phenyl)-2-((2R,5R)-4-(2-(4-(3-(6-cyano-5-(trifluoromethyl)pyridin-3-yl)-5,5-dimethyl-4-oxo-2-thioxoimidazolidin-1-yl)-2-isopropylphenoxy)ethyl)-2,5-dimethylpiperazin-1-yl)acetamide] | * (0<Y<=25%) | 100 to 500 nM
CC(C)c1cc(N2C(=S)N(c3cnc(C#N)c(C(F)(F)F)c3)C(=O)C23CCC3)ccc1OCCN1C[C@@H](C)N(CC(=O)Nc2cccc(NC3CCC(=O)NC3=O)c2)[C@@H](C)C1 (stereo partly drawn) [Example 176, 2-((2S,6R)-4-(2-(4-(7-(6-cyano-5-(trifluoromethyl)pyridin-3-yl)-8-oxo-6-thioxo-5,7-diazaspiro[3.4]octan-5-yl)-2-isopropylphenoxy)ethyl)-2,6-dimethylpiperazin-1-yl)-N-(3-(2,6-dioxopiperidin-3-ylamino)phenyl)acetamide] | * (0<Y<=25%) | < 100 nM
CCc1cc(N2C(=S)N(c3cnc(C#N)c(Cl)c3)C(=O)C2(C)C)ccc1OCCN1CCN(CC(=O)Nc2cccc(NC3CCC(=O)NC3=O)c2)[C@H](C)C1 (stereo partly drawn) [Example 167, 2-((R)-4-(2-(4-(3-(5-chloro-6-cyanopyridin-3-yl)-5,5-dimethyl-4-oxo-2-thioxoimidazolidin-1-yl)-2-ethylphenoxy)ethyl)-2-methylpiperazin-1-yl)-N-(3-(2,6-dioxopiperidin-3-ylamino)phenyl)acetamide] | * (0<Y<=25%) | < 100 nM
CC(C)c1cc(N2C(=S)N(c3ccc(C#N)c(C(F)(F)F)c3)C(=O)C2(C)C)ccc1OCCN1CCN(CC(=O)Nc2cccc(NC3CCC(=O)NC3=O)c2)CC1 (stereo not shown) [Example 17, hydrochloride] | * (0<Y<=25%) | < 100 nM
CC(C)c1cc(N2C(=S)N(c3ccc(C#N)c(Cl)c3)C(=O)C2(C)C)ccc1OCCN1C[C@@H](C)N(CC(=O)Nc2cc(F)cc(NC3CCC(=O)NC3=O)c2)[C@@H](C)C1 (stereo partly drawn) [Example 251, 2-((2S,6R)-4-(2-(4-(3-(3-chloro-4-cyanophenyl)-5,5-dimethyl-4-oxo-2-thioxoimidazolidin-1-yl)-2-isopropylphenoxy)ethyl)-2,6-dimethylpiperazin-1-yl)-N-(3-(2,6-dioxopiperidin-3-ylamino)-5-fluorophenyl)acetamide] | * (0<Y<=25%) | < 100 nM
CCc1cc(N2C(=S)N(c3ccc(C#N)c(C(F)(F)F)c3)C(=O)C2(C)C)ccc1OCCN1CCN(C2(C(=O)Nc3cccc(NC4CCC(=O)NC4=O)c3)CC2)CC1 (stereo not shown) [Example 139, 1-(4-(2-(4-(3-(4-cyano-3-(trifluoromethyl)phenyl)-5,5-dimethyl-4-oxo-2-thioxoimidazolidin-1-yl)-2-ethylphenoxy)ethyl)piperazin-1-yl)-N-(3-(2,6-dioxopiperidin-3-ylamino)phenyl)cyclopropanecarboxamide] | * (0<Y<=25%) | < 100 nM
CCc1cc(N2C(=S)N(c3ccc(C#N)c(C(F)(F)F)c3)C(=O)C2(C)C)ccc1OCCN1CCN([C@@H](C)C(=O)Nc2cccc(NC3CCC(=O)NC3=O)c2)CC1 (stereo partly drawn) [Example 57, (2S)-2-(4-(2-(4-(3-(4-cyano-3-(trifluoromethyl)phenyl)-5,5-dimethyl-4-oxo-2-thioxoimidazolidin-1-yl)-2-ethylphenoxy)ethyl)piperazin-1-yl)-N-(3-(2,6-dioxopiperidin-3-ylamino)phenyl)propanamide] | * (0<Y<=25%) | < 100 nM
C[C@@H]1CN(CC(=O)Nc2cc(C#N)cc(NC3CCC(=O)NC3=O)c2)[C@H](C)CN1CCOc1ccc(N2C(=S)N(c3cnc(C#N)c(C(F)(F)F)c3)C(=O)C2(C)C)cc1C(C)(F)F (stereo partly drawn) [Example 243, N-(3-cyano-5-(2,6-dioxopiperidin-3-ylamino)phenyl)-2-((2R,5R)-4-(2-(4-(3-(6-cyano-5-(trifluoromethyl)pyridin-3-yl)-5,5-dimethyl-4-oxo-2-thioxoimidazolidin-1-yl)-2-(1,1-difluoroethyl)phenoxy)ethyl)-2,5-dimethylpiperazin-1-yl)acetamide] | * (0<Y<=25%) | < 100 nM
CC1(C)C(=O)N(c2ccc(C#N)c(C(F)(F)F)c2)C(=S)N1c1ccc(OCCN2CCN(CC(=O)Nc3cccc(NC4CCC(=O)NC4=O)c3)CC2)c(C2CCCC2)c1 (stereo not shown) [Example 39, hydrochloride] | ** (25%<Y<=35%) | 100 to 500 nM
CC1(C)C(=O)N(c2cnc(C#N)c(C(F)(F)F)c2)C(=S)N1c1ccc(OCCN2CCN(CC(=O)Nc3cc(NC4CCC(=O)NC4=O)ccc3F)CC2)c(CCF)c1 (stereo not shown) [Example 71, 2-(4-(2-(4-(3-(6-cyano-5-(trifluoromethyl)pyridin-3-yl)-5,5-dimethyl-4-oxo-2-thioxoimidazolidin-1-yl)-2-(2-fluoroethyl)phenoxy)ethyl)piperazin-1-yl)-N-(5-(2,6-dioxopiperidin-3-ylamino)-2-fluorophenyl)acetamide] | * (0<Y<=25%) | < 100 nM
